Results: patent US20250129430A1, “HIGH ATP-AFFINITY PROTEIN AS THERAPEUTIC TARGET FOR INTRACTABLE CANCER MOLECULAR SUBTYPES AND INHIBITOR THEREOF” (VeraVerse Co., Ltd., priority 2021, published 2025)

Legend:
Format in all cases: cell-based, human
[1] = system: YCC3; test: Cell viability drug screen, 12-point dose-response AUC; settings: YCC3 cells; 72 hours
Outline: (§1)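 AUC comes from 12-point half-log dose–response curves, normalized to DMSO-treated cells and integrated trapezoidally, repeats averaged. Luminescent viability read after 72 h compound exposure at 37 °C; cells plated 5×10^3 per well 24 h before dosing.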

[2] = system: SNU620; test: as above; settings: SNU620 cells; 72 hours
Outline: as §1

[3] = system: SNU668; test: as above; settings: SNU668 cells (SEM subtype); 72 hours
Outline: as §1

[4] = system: SNU1; test: as above; settings: SNU1 cells; 72 hours
Outline: as §1

[5] = system: SNU484; test: as above; settings: SNU484 cells (SEM subtype); 72 hours
Outline: as §1

[6] = system: SNU16; test: as above; settings: SNU16 cells; 72 hours
Outline: as §1

[7] = system: KATO3; test: as above; settings: KATO3 cells; 72 hours
Outline: as §1

[8] = system: MKN74; test: as above; settings: MKN74 cells; 72 hours
Outline: (§2)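 Dose-response AUC reflects 72 h drug exposure of gastric cancer cells in a 12-point, half-log format, with viability read by luminescence and normalized to DMSO (0.5%).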

[9] = system: OCUM1; test: as above; settings: OCUM1 cells; 72 hours
Outline: as §1

[10] = system: AGS; test: as above; settings: AGS cells (non-SEM subtype); 72 hours
Outline: as §2

[11] = system: NCC59; test: as above; settings: NCC59 cells; 72 hours
Outline: as §1

[12] = system: MKN45; test: as above; settings: MKN45 cells (non-SEM subtype); 72 hours
Outline: as §2

[13] = system: NCC24; test: as above; settings: NCC24 cells; 72 hours
Outline: as §1

[14] = system: SNU1750; test: as above; settings: SNU1750 cells (SEM subtype); 72 hours
Outline: as §1

[15] = system: SNU601; test: as above; settings: SNU601 cells; 72 hours
Outline: as §1

[16] = system: SNU719; test: as above; settings: SNU719 cells; 72 hours
Outline: as §2

[17] = system: NCC20; test: as above; settings: NCC20 cells; 72 hours
Outline: as §1

[18] = system: MKN28; test: as above; settings: MKN28 cells; 72 hours
Outline: as §1

[19] = system: SNU638; test: as above; settings: SNU638 cells; 72 hours
Outline: as §1

[20] = system: YCC2; test: as above; settings: YCC2 cells; 72 hours
Outline: as §1

[21] = system: SNU216; test: as above; settings: SNU216 cells (non-SEM subtype); 72 hours
Outline: as §2

[22] = system: SNU1967; test: as above; settings: SNU1967 cells; 72 hours
Outline: as §1

[23] = system: NCC19; test: as above; settings: NCC19 cells; 72 hours
Outline: as §1

[24] = system: NCI_N87; test: as above; settings: NCI_N87 cells; 72 hours
Outline: as §1

[25] = system: SK4; test: as above; settings: SK4 cells (SEM subtype); 72 hours
Outline: as §1

[26] = system: MKN1; test: as above; settings: MKN1 cells; 72 hours
Outline: as §1

[27] = system: YCC11; test: as above; settings: YCC11 cells (SEM subtype); 72 hours
Outline: as §1

[28] = system: Hs746T; test: as above; settings: Hs746T cells (SEM subtype); 72 hours
Outline: as §1

[29] = system: SEM-type gastric cancer cell line; test: Cell viability drug screen, AUC summary over SEM-type lines
Description: An FDA-approved small-molecule pharmacological compound (#L1300) and an anticancer compound for research (#L2000) were purchased from Selecckchem and a 10 mM solution was prepared in DMSO. A total of 1,345 compounds were tested the cell viability of the seven EMT gastric cancer cell lines.
Cells cultured for cell-based drug assay were inoculated into a 96-well white optical plate (Corning) at 5×10^3 cells per well. After 24 hours after inoculation, a 2.5 MJT (primary screen) or a half-log 12-serial diluent (secondary screen) of the pharmacological compound contained in DMSO is added to the cells with a robot using a BioMek FXp liquid processor (Beckman) to add to the cells at 50 mM. The final drug concentration in the 5 ns range and the DMSO specification control (0.5%) were calculated. The cells were then further incubated at 37° C. in a 5% CO2 incubator for 72 hours prior to measuring cell viability using the extra-GLO assay kit (Promega). The luminescent properties were measured after 15 min incubation at room temperature using a plate stacker equipped with a plate stacker. The normalized viability for the DMSO-based control was measured to generate a cell line-specific 12-point dose-response curve for each pharmacological compound, and then the area under the curve (AUC) was calculated using a trapezoidal method.

[30] = system: FU97; test: Cell viability drug screen, 12-point dose-response AUC; parameters: Average Area Under the Viability Curve (AUC), AUC norm value: scale not given here; settings: FU97 cells; 72 hours
Outline: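 Trapezoidal AUC of a 12-point, DMSO-normalized dose-response curve. Luminescent viability was measured after 72 h of exposure at 37° C to half-log serial dilutions (0.5% DMSO control), dosed 24 h after plating FU97 cells at 5×10^3 per well.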

[31] = system: non-SEM-type gastric cancer cell line; test: Cell viability drug screen, AUC summary over non-SEM-type lines; settings: in the non-SEM-type gastric cancer cell line

Structure (SMILES)	Average Area Under the Viability Curve (AUC), AUC norm value [1]	Average Area Under the Viability Curve (AUC), AUC norm value [2]	Average Area Under the Viability Curve (AUC), AUC norm value [3]	Average Area Under the Viability Curve (AUC), AUC norm value [4]	Average Area Under the Viability Curve (AUC), AUC norm value [5]	Average Area Under the Viability Curve (AUC), AUC norm value [6]	Average Area Under the Viability Curve (AUC), AUC norm value [7]	Average Area Under the Viability Curve (AUC), AUC norm value [8]	Average Area Under the Viability Curve (AUC), AUC norm value [9]	Average Area Under the Viability Curve (AUC), AUC norm value [10]	Average Area Under the Viability Curve (AUC), AUC norm value [11]	Average Area Under the Viability Curve (AUC), AUC norm value [12]	Average Area Under the Viability Curve (AUC), AUC norm value [13]	Average Area Under the Viability Curve (AUC), AUC norm value [14]	Average Area Under the Viability Curve (AUC), AUC norm value [15]	Average Area Under the Viability Curve (AUC), AUC norm value [16]	Average Area Under the Viability Curve (AUC), AUC norm value [17]	Average Area Under the Viability Curve (AUC), AUC norm value [18]	Average Area Under the Viability Curve (AUC), AUC norm value [19]	Average Area Under the Viability Curve (AUC), AUC norm value [20]	other results
Cn1c(=O)n(-c2ccc(C(C)(C)C#N)cc2)c2c3cc(-c4cnc5ccccc5c4)ccc3ncc21 [BEZ235 (NVP-BEZ235), BEZ235]	0.9008	−0.6893	1.258	−1.128	0	−0.9859	2.717	0.02041	−0.3719	−1.768	2.997	1.887	0.08486	−1.129	2.66	5.119	−1.542	2.007	0.8979	0.6403	Average Area Under the Viability Curve (AUC), AUC norm value [21]: −0.6351; Average Area Under the Viability Curve (AUC), AUC norm value [22]: −0.17; Average Area Under the Viability Curve (AUC), AUC norm value [23]: 0.9022; Average Area Under the Viability Curve (AUC), AUC norm value [24]: 0.7505; Average Area Under the Viability Curve (AUC), AUC norm value [25]: −3.142; Average Area Under the Viability Curve (AUC), AUC norm value [26]: −0.845; Average Area Under the Viability Curve (AUC), AUC norm value [27]: −2.698; Average Area Under the Viability Curve (AUC), AUC norm value [28]: −0.9926; normalized viability AUC [29]: negative; Average Area Under the Viability Curve (AUC), AUC norm value [30]: −2.382; AUC value [31]: high
CCCCCCCCCCCCCCCC[N+](C)(C)CCN(Cc1ccc(OC)cc1)c1ncccn1 [Thonzonium Bromide]	0.6163	−0.2404	0.3151	1.478	−0.9082	−0.9128	−0.127	−0.9967	0.2209	−0.4105	0.6096	0.1213	−0.2465	0.06729	2.228	1.9	−0.6042	0.07021	−0.4973	−0.4255	Average Area Under the Viability Curve (AUC), AUC norm value [21]: 0.2737; Average Area Under the Viability Curve (AUC), AUC norm value [22]: 0.01501; Average Area Under the Viability Curve (AUC), AUC norm value [23]: 0.2995; Average Area Under the Viability Curve (AUC), AUC norm value [24]: 0.415; Average Area Under the Viability Curve (AUC), AUC norm value [25]: −1.033; Average Area Under the Viability Curve (AUC), AUC norm value [26]: −0.2414; Average Area Under the Viability Curve (AUC), AUC norm value [27]: −0.8304; Average Area Under the Viability Curve (AUC), AUC norm value [28]: 0; Average Area Under the Viability Curve (AUC), AUC norm value [30]: −0.03008; AUC value [31]: high
CCC[C@H](NC(=O)/C(C#N)=C/c1cccc(Br)n1)c1ccccc1 [WP1130]	0.8784	1.336	0.1607	1.527	−0.8971	0	1.454	−0.1908	−0.652	−0.6997	0.7588	1.024	0.3475	−0.8602	3.24	1.245	−0.8247	−0.04006	−0.3485	0.94	Average Area Under the Viability Curve (AUC), AUC norm value [21]: 0.1101; Average Area Under the Viability Curve (AUC), AUC norm value [22]: −0.7195; Average Area Under the Viability Curve (AUC), AUC norm value [23]: 1.376; Average Area Under the Viability Curve (AUC), AUC norm value [24]: 2.159; Average Area Under the Viability Curve (AUC), AUC norm value [25]: −0.08364; Average Area Under the Viability Curve (AUC), AUC norm value [26]: −0.4264; Average Area Under the Viability Curve (AUC), AUC norm value [27]: −0.2144; Average Area Under the Viability Curve (AUC), AUC norm value [28]: −0.3738; Average Area Under the Viability Curve (AUC), AUC norm value [30]: −0.7929; AUC value [31]: high
